Data: US20220387317A1, “METHODS AND COMPOSITIONS RELATING TO SELECTIVE INTRACELLULAR DELIVERY OF CD38 INHIBITORS” (Ohio State Innovation Foundation, priority 2019, published 2022)
Entries after “also recorded” stand apart in the source; their conditions may differ.

Legend:
Sprague Dawley rats = experiment: Rat liver hilar clamp model of IRI (segmental 70% ischemia); assay type: in vivo
From the text: In Vitro: Primary liver cells subjected to H2O2-induced oxidative stress injury. In Vivo: Liver IRI induced in Sprague Dawley rats using a segmental (70% ischemia) hilar clamp model. Markers of liver injury including plasma ALT and AST, tissue MDA, ATP, and GSH, and histology assessed. • b) Results Hypoxic HSCs had increased CD38 expression (FIG. 11) and CD38 activity measured by fluorometric assay (FIG. 12). CD38 expression, activity, and hepatocellular injury increased with duration of ischemia in a rat hilar clamp model of IRI: Sprague-Dawley rats underwent a hilar clamp procedure to induce IRI for 30, 60, 90, 120 min of ischemia followed by 6 h reperfusion. Tissue CD38 expression was measured by Western blot (FIG. 15A), serum ALT by colorimetric assay at 0, 30, 180, 360 min post reperfusion (FIG. 15B), and CD38 activity at all ischemia time points (FIG. 15C). CD38 inhibition increases cell viability, decreases intracellular ROS formation and ET-1 production in HSCs exposed to hypoxia/oxidant stress: Primary rat HSCs were exposed to 3 h hypoxia (0% 02) and 2 h oxidant stress (H2O2). […] Rat model of marginal donor organ recapitulates the inflammatory environment of a discarded “high risk” human donor organ: Control rats have little steatosis by H&E (FIG. 18A) and mild CD38 expression by IHC (FIG. 18B). Rats fed a methionine choline deficient (MCD) diet have severe steatosis by H&E (FIG. 18C) and high CD38 expression co-localizing with GFAP positive HSCs by IHC (FIG. 18D).

CD38 = target: T1, CD38 (Rattus norvegicus, UniProt Q64244); experiment: CD38 activity during hepatic IRI; assay type: in vivo
T1 construct: Liver IRI induced in Sprague Dawley rats using a segmental (70% ischemia) hilar clamp model; from tissue; host or cells: rat liver (Sprague Dawley, hilar clamp ischemia/reperfusion)
T1 sequence (Q64244 1-303): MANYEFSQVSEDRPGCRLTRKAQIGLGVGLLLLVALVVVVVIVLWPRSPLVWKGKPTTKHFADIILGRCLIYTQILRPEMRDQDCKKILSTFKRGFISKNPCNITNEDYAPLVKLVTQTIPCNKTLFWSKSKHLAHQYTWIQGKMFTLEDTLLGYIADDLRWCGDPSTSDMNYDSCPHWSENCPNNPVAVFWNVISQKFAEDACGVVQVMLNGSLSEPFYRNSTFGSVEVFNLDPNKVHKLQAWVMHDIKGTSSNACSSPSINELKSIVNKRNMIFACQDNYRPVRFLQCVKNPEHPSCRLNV
From the text: In Vitro: Primary liver cells subjected to H2O2-induced oxidative stress injury. In Vivo: Liver IRI induced in Sprague Dawley rats using a segmental (70% ischemia) hilar clamp model. […] Additionally, CD38 activity correlated with increased ischemic time (FIGS. 15A and 15C). However, Apigenin treatment attenuated liver IRI (FIG. 16). […] Additionally, Apigenin treatment improves tissue MAD, ATP and GSH. Lastly, Apigenin treatment preserves tissue architecture.

CD38 activity during IRI (CD38; FIG. 14): rescued | CD38 activity during IRI (CD38; FIG. 14, listed as Inhibitor): decreases
SMILES: O=c1cc(-c2ccc(O)cc2)oc2cc(O)cc(O)c12 [Apigenin]
tissue architecture (Sprague Dawley rats; histology, liver IRI): preserves | liver IRI (injury) (Sprague Dawley rats; intrahepatic delivery, 1 h of ischemia and 6 h of reperfusion, FIG. 16): attenuated; also recorded: protection from injury; also recorded: decreased injury | tissue ATP (Sprague Dawley rats; liver tissue, liver IRI): improves | tissue GSH (Sprague Dawley rats; liver tissue, liver IRI): improves | tissue MDA (malondialdehyde) (Sprague Dawley rats; liver tissue, liver IRI): improves | ALT (Sprague Dawley rats; plasma, liver IRI): improves | AST (Sprague Dawley rats; plasma, liver IRI): improves
